18 compounds from US7737139B2, “Sulfonic acids, their derivatives and pharmaceutical compositions containing them” (Dompe PHA.R.MA S.p.A., priority 2003, dated 2010) can be followed below.

Where a name gives a salt, the structure may show the parent alone.

One assay has as its system human PMNs. The assay is described as follows: IL-8 induced human PMN chemotaxis assay. The note with it: c = 10^−8 M; human PMNs chemotaxis induced by IL-8 (100 ng/mL). The assay is classed as cell-based. The protocol: The compounds of formula (I) were evaluated in vitro for their ability to inhibit chemotaxis of polymorphonucleate leukocytes (hereinafter referred to as PMNs) and monocytes induced by the fractions of IL-8 and GRO-α. For this purpose, in order to isolate the PMNs from heparinized human blood, taken from healthy adult volunteers, mononucleates were removed by means of sedimentation on dextran (according to the procedure disclosed by W. J. Ming et al, J. Immunol., 138, 1469, 1987) and red blood cells by a hypotonic solution. The cell vitality was calculated by exclusion with Trypan blue, whilst the ratio of the circulating polymorphonucleates was estimated on the cytocentrifugate after staining with Diff Quick.
Human recombinant IL-8 (Pepro Tech) was used as stimulating agents in the chemotaxis experiments, giving practically identical results: the lyophilized protein was dissolved in a volume of HBSS containing 0.2% bovin serum albumin (BSA) so thus to obtain a stock solution having a concentration of 10^−5 M to be diluted in HBSS to a concentration of 10^−9 M, for the chemotaxis assays.
During the chemotaxis assay (according to W. Falket et al., J. Immunol. Methods, 33, 239, 1980) PVP-free filters with a porosity of 5 μm and microchambers suitable for replication were used.
The compounds of formula (I) were evaluated at a concentration ranging between 10^−6 and 10^−10 M; for this purpose they were added, at the same concentration, both to the […] of the microchamber. Evaluation of the ability of the compounds of the invention of formula I to inhibit IL-8-induced chemotaxis of human monocytes was carried out according to the method disclosed by Van Damme J. et al. (Eur. J. Immunol., 19, 2367, 1989).
Biological results of some representative compounds in the IL-8 induced PMN chemotaxis test are reported in table II (inhibition data, C=10^−8 M).
The inhibition is the drop in the measured response relative to a control, in per cent. The low end stands for a response near the control, the high end for a response far below the control. `C/C(=C\S(N)(=O)=O)c1ccc(CC(C)C)cc1` [Compound 50, E-2-(4-isobutylphenyl)-2-methyl-ethenesulfonamide] gave an inhibition at 0.01 µM of 32 ± 1%.

`CC(C)Cc1ccc(/C=C/S(N)(=O)=O)cc1` [Compound 14, E-2-(4-isobutylphenyl) ethenesulfonamide]: the inhibition at 0.01 µM is 41 ± 17%. Compound `CC(C)Cc1ccc([C@@H](C)S(=O)(=O)O)cc1` [Compound 1, (−)-1-(4-isobutylphenyl) ethanesulfonic acid sodium salt] returned an inhibition at 0.01 µM of 55 ± 7%. In turn, `CN(C)CCCNS(=O)(=O)/C=C/c1ccc(OS(=O)(=O)C(F)(F)F)cc1` [Compound 20, E-2-[4-(trifluoromethanesulfonyloxy)phenyl]ethene-(N,N-dimethylaminopropyl)sulfonamide] returned an inhibition at 0.01 µM of 60 ± 1%. Still for that read-out and setting: next, `CC(C)Cc1ccc(/C=C/S(=O)(=O)NCCCN(C)C)cc1` [Compound 18, E-2-(4-isobutylphenyl)ethene(N,N-dimethylaminopropyl) sulfonamide]: 40 ± 1%. Regarding `CC(c1cccc(C(=O)c2ccccc2)c1)S(=O)(=O)NCCCN(C)C` (racemic) [Compound 36, (±)-1-(3-benzoylphenyl)ethane-N-(N,N-dimethylaminopropyl) sulfonamide], 0.01 µM produced 49 ± 14% inhibition. On the same count and under the same terms, next, `CN(C)CCCNS(=O)(=O)/C=C/c1ccc(NS(C)(=O)=O)cc1` [Compound 21, E-2-[4-(methanesulfonylamino)phenyl] ethene-(N,N-dimethylaminopropyl) sulfonamide]: 31 ± 6%; `CC(=O)c1ccc(CS(N)(=O)=O)n1C` [Compound 31, (1-methyl-5-acetylpyrrolyl)-1-methanesulfonamide]: 39 ± 4%. The same measure, in the same setting: next, `CC(c1cccc(C(=O)c2ccccc2)c1)S(=O)(=O)O` (racemic) [Compound 8, sodium salt]: 65 ± 4%. Still for that read-out and setting: next, `CC(=O)NS(=O)(=O)C(C)c1ccc(CC(C)C)cc1` (racemic) [Compound 47, (±)-1-(4-isobutylphenyl)ethane-N-acetyl sulfonamide]: 40 ± 17%; `CC(C)Cc1ccc([C@H](C)S(=O)(=O)O)cc1` [Compound 2, (+)-1-(4-isobutylphenyl) ethanesulfonic acid sodium salt]: 35 ± 7%; `NS(=O)(=O)/C=C/c1cccc(C(=O)c2ccccc2)c1` [Compound 15, E-2-(3-benzoylphenyl) ethenesulfonamide]: 66 ± 10%. `CC(=O)c1ccc(CS(=O)(=O)O)n1C` [Compound 7, (1-methyl-5-acetylpyrrolyl)-1-methanesulfonic acid sodium salt] came in with an inhibition at 0.01 µM of 35 ± 2%.

In turn, `CC(C)C(=O)c1ccc(CS(N)(=O)=O)n1C` [Compound 30, (1-methyl-5-isobutirrylpyrrolyl)-1-methanesulfonamide] registered an inhibition at 0.01 µM of 50 ± 1%.

As for `CC(C)Cc1ccc(/C=C/S(=O)(=O)O)cc1` [Compound 10, E-2-(4-isobutylphenyl)ethenesulfonic acid sodium salt], 0.01 µM produced 45 ± 4% inhibition.

For a further assay, the system named is human PMNs. The assay is described as follows: IL-8 induced human PMN chemotaxis assay. The settings on record: compounds marked * tested at c = 10^−7; human PMNs chemotaxis induced by IL-8 (100 ng/mL). The assay is classed as cell-based.
With `CS(=O)(=O)Nc1ccc(/C=C/S(N)(=O)=O)cc1` [Compound 17, E-2-[4-(methanesulfonylamino)phenyl] ethenesulfonamide], the inhibition at 0.1 µM worked out at 41 ± 17%.

Regarding `CNS(=O)(=O)/C=C/c1ccc(CC(C)C)cc1` [Compound 22, E-2-(4-isobutylphenyl)ethene-N-methyl sulfonamide], the inhibition at 0.1 µM was found to be 41 ± 9%.

As to `CNS(=O)(=O)C(C)c1ccc(CC(C)C)cc1` (racemic) [Compound 43, (±)-1-(4-isobutylphenyl)ethane-N-methyl sulfonamide], 0.1 µM produced 36 ± 15% inhibition.
